Our source for the IC50 values is US7704995B2 (Exelixis, Inc., priority 2003, dated 2010).

The target of the test is T1, Chk1 (Homo sapiens, UniProt O14757).
T1 construct: purchased Upstate Biotechnology
T1 sequence (O14757 1-476): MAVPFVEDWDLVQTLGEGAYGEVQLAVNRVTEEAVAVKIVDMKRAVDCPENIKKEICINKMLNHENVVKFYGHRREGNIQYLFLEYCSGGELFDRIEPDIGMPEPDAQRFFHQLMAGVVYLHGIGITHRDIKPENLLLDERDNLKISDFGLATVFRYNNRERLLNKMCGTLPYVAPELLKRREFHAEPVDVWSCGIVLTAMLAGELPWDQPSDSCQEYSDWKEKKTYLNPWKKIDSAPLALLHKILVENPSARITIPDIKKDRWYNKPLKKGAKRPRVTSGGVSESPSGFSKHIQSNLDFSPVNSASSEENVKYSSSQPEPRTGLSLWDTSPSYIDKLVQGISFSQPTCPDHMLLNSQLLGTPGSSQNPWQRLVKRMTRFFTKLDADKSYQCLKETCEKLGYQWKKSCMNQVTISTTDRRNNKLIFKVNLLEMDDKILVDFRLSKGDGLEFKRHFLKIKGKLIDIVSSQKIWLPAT
The test is described as follows: Chk1 kinase assay: incorporation of γ-33P ATP into immobilized myelin basic protein. The test is classed as biochemical. The settings on record: Table 11; Chk1 only; read-out: Chk1 IC50. A digest of the protocol: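 Read-out is scintillation counting of 33P incorporated into plate-bound myelin basic protein. Chk1 runs at 10 nM enzyme with 10 μM ATP, Chk2 at 20 nM with 30 μM ATP, each for 1 hour at room temperature. Duplicate points; IC50 taken as 50% activity reduction, Ki computed from IC50.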

The structures appear in SMILES notation.

Regarding `COc1ccc(C(=O)c2nc(-c3cccc(C(=O)NCc4ccccc4)c3)cnc2N)c(OC)c1` [Example 588, 3-(5-amino-6-{[2,4-bis(methyloxy)phenyl]carbonyl}pyrazin-2-yl)-N-(phenylmethyl)benzamide], the IC50 (as a rule, the point on the concentration scale where inhibition reaches its midpoint) was not below 10 µM.
Under `CN(C)c1ccc(C(=O)c2nc(-c3cccc(C(=O)NCc4ccccc4)c3)cnc2N)cc1` [Example 589, 3-(5-amino-6-{[4-(dimethylamino)phenyl]carbonyl}pyrazin-2-yl)-N-(phenylmethyl)benzamide] stands not below 10 µM; under `COC(=O)[C@@H]1CCCN1C(=O)c1nc(-c2cccc(C(=O)NCc3ccccc3)c2)cnc1N` [Example 590, methyl 1-{[3-amino-6-(3-{[(phenylmethyl)amino]carbonyl}phenyl)pyrazin-2-yl]carbonyl}-L-prolinate], not below 10 µM.
Next, `COC(=O)C1CCCN(C(=O)c2nc(-c3cccc(C(=O)NCc4ccccc4)c3)cnc2N)C1` (stereo not shown) [Example 591, methyl 1-{[3-amino-6-(3-{[(phenylmethyl)amino]carbonyl}phenyl)pyrazin-2-yl]carbonyl}piperidine-3-carboxylate]: not below 10 µM; `CC(C)(C)OC(=O)N1CCN(C(=O)c2nc(-c3cccc(C(=O)NCc4ccccc4)c3)cnc2N)CC1` [Example 592, 1,1-dimethylethyl 4-{[3-amino-6-(3-{[(phenylmethyl)amino]carbonyl}phenyl)pyrazin-2-yl]carbonyl}piperazine-1-carboxylate]: not below 10 µM.
Under `Nc1ncc(-c2cccc(C(=O)NCc3ccccc3)c2)nc1C(=O)N1CCNCC1` [Example 593, 3-[5-amino-6-(piperazin-1-ylcarbonyl)pyrazin-2-yl]-N-(phenylmethyl)benzamide] stands not below 10 µM.
With `Nc1ncc(-c2cccc(C(=O)NCc3ccccc3)c2)nc1C(=O)N[C@@H](CCC(=O)O)C(=O)O` [Example 594, N-{[3-amino-6-(3-{[(phenylmethyl)amino]carbonyl}phenyl)pyrazin-2-yl]carbonyl}glutamic acid], the IC50 was 1 to 10 µM.
Next, `COCc1nnc(-c2nc(-c3cccc(CN[C@H]4CCc5ccccc54)c3)cnc2N)[nH]1` [Example 595, 5-(3-{[(1S)-2,3-dihydro-1H-inden-1-ylamino]methyl}phenyl)-3-{5-[(methyloxy)methyl]-4H-1,2,4-triazol-3-yl}pyrazin-2-amine]: 1 to 10 µM; `Nc1ncc(-c2cccc(CN[C@H]3CCc4ccccc43)c2)nc1-c1nc(-c2cccnc2)n[nH]1` [Example 596, 5-(3-{[(1S)-2,3-dihydro-1H-inden-1-ylamino]methyl}phenyl)-3-(3-pyridin-3-yl-1H-1,2,4-triazol-5-yl)pyrazin-2-amine]: less than 0.05 µM; `CNCCCNC(=O)c1nc(-c2cccc(CN[C@H]3CCc4ccccc43)c2)cnc1N` [Example 597, 3-amino-6-(3-{[(1S)-2,3-dihydro-1H-inden-1-ylamino]methyl}phenyl)-N-[3-(methylamino)propyl]pyrazine-2-carboxamide]: less than 0.05 µM.
Under `Nc1ncc(-c2cccc(CN[C@H]3CCc4ccccc43)c2)nc1C(=O)NCCCN1CCCC1` [Example 598, 3-amino-6-(3-{[(1S)-2,3-dihydro-1H-inden-1-ylamino]methyl}phenyl)-N-(3-pyrrolidin-1-ylpropyl)pyrazine-2-carboxamide] stands 1 to 10 µM.
Under `COc1ccc(N/N=C(\C)c2nc(-c3cccc(C(=O)NCc4ccccc4)c3)cnc2N)cc1` [Example 599, 3-(5-amino-6-{(1E)-N-[4-(methyloxy)phenyl]ethanehydrazonoyl}pyrazin-2-yl)-N-(phenylmethyl)benzamide] stands 1 to 10 µM; under `C/C(=N\Nc1ccc(C(C)C)cc1)c1nc(-c2cccc(C(=O)NCc3ccccc3)c2)cnc1N` [Example 600, 3-(5-amino-6-{(1E)-N-[4-(1-methylethyl)phenyl]ethanehydrazonoyl}pyrazin-2-yl)-N-(phenylmethyl)benzamide], 1 to 10 µM; under `C/C(=N\Nc1nc2ccccc2s1)c1nc(-c2cccc(C(=O)NCc3ccccc3)c2)cnc1N` [Example 601, 3-{5-amino-6-[(1E)-N-1,3-benzothiazol-2-ylethanehydrazonoyl]pyrazin-2-yl}-N-(phenylmethyl)benzamide], not below 10 µM.
For the molecule `C/C(=N\Nc1ccc(C)cc1)c1nc(-c2cccc(C(=O)NCc3ccccc3)c2)cnc1N` [Example 602, 3-{5-amino-6-[(1E)-N-(4-methylphenyl)ethanehydrazonoyl]pyrazin-2-yl}-N-(phenylmethyl)benzamide], the IC50 is not below 10 µM.
Next, `C/C(=N\Nc1ccc(Cl)cc1)c1nc(-c2cccc(C(=O)NCc3ccccc3)c2)cnc1N` [Example 603, 3-{5-amino-6-[(1E)-N-(4-chlorophenyl)ethanehydrazonoyl]pyrazin-2-yl}-N-(phenylmethyl)benzamide]: not below 10 µM; `C/C(=N\N(C)c1ccccc1)c1nc(-c2cccc(C(=O)NCc3ccccc3)c2)cnc1N` [Example 604, 3-{5-amino-6-[(1E)-N-methyl-N-phenylethanehydrazonoyl]pyrazin-2-yl}-N-(phenylmethyl)benzamide]: 1 to 10 µM.
Next, `C/C(=N\NCCO)c1nc(-c2cccc(C(=O)NCc3ccccc3)c2)cnc1N` [Example 605, 3-{5-amino-6-[(1E)-N-(2-hydroxyethyl)ethanehydrazonoyl]pyrazin-2-yl}-N-(phenylmethyl)benzamide]: 0.05 to 1 µM.
Consider `Nc1ncc(-c2cccc(CO)c2)nc1-c1nc(-c2ccncc2)n[nH]1` [Example 606, {3-[5-amino-6-(3-pyridin-4-yl-1H-1,2,4-triazol-5-yl)pyrazin-2-yl]phenyl}methanol], for which the IC50 was less than 0.05 µM.
Under `Nc1ncc(-c2cccc(CO)c2)nc1-c1nc(C2CCNCC2)n[nH]1` [Example 607, {3-[5-amino-6-(3-piperidin-4-yl-1H-1,2,4-triazol-5-yl)pyrazin-2-yl]phenyl}methanol] stands 1 to 10 µM.
`Nc1nccc(-c2nc(-c3cccc(C(=O)NCc4ccccc4)c3)cnc2N)n1` [Example 608, 3-[5-amino-6-(2-aminopyrimidin-4-yl)pyrazin-2-yl]-N-(phenylmethyl)benzamide]: the IC50 is 1 to 10 µM.
Next, `CN(C)c1nccc(-c2nc(-c3cccc(C(=O)NCc4ccccc4)c3)cnc2N)n1` [Example 609, 3-{5-amino-6-[2-(dimethylamino)pyrimidin-4-yl]pyrazin-2-yl}-N-(phenylmethyl)benzamide]: not below 10 µM; `CCOC(=O)[C@H](Cc1ccc(O)cc1)NC(=O)c1nc(-c2cccc(C(=O)NCc3ccccc3)c2)cnc1N` [Example 610, ethyl N-{[3-amino-6-(3-{[(phenylmethyl)amino]carbonyl}phenyl)pyrazin-2-yl]carbonyl}-L-tyrosinate]: not below 10 µM; `Nc1ncc(-c2cccc(C(=O)NCc3ccccc3)c2)nc1C(=O)N[C@H](Cc1ccc(O)cc1)C(=O)O` [Example 611, N-{[3-amino-6-(3-{[(phenylmethyl)amino]carbonyl}phenyl)pyrazin-2-yl]carbonyl}-D-tyrosine]: not below 10 µM.
For the molecule `CC(C)(C)OC(=O)NCCCNC(=O)c1nc(-c2cccc(C(=O)NCc3ccccc3)c2)cnc1N` [Example 612, 1,1-dimethylethyl [3-({[3-amino-6-(3-{[(phenylmethyl)amino]carbonyl}phenyl)pyrazin-2-yl]carbonyl}amino)propyl]carbamate], the IC50 is not below 10 µM.
Next, `NCCCNC(=O)c1nc(-c2cccc(C(=O)NCc3ccccc3)c2)cnc1N` [Example 613, 3-amino-N-(3-aminopropyl)-6-(3-{[(phenylmethyl)amino]carbonyl}phenyl)pyrazine-2-carboxamide]: 0.05 to 1 µM; `Nc1ncc(-c2cccc(C(=O)NCc3ccccc3)c2)nc1C(=O)N1CCCC(C(=O)O)C1` (stereo not shown) [Example 614, 1-{[3-amino-6-(3-{[(phenylmethyl)amino]carbonyl}phenyl)pyrazin-2-yl]carbonyl}piperidine-3-carboxylic]: not below 10 µM.
Under `CC(C)(C)OC(=O)NCCNC(=O)c1nc(-c2cccc(C(=O)NCc3ccccc3)c2)cnc1N` [Example 615, 1,1-dimethylethyl [2-({[3-amino-6-(3-{[(phenylmethyl)amino]carbonyl}phenyl)pyrazin-2-yl]carbonyl}amino)ethyl]carbamate] stands not below 10 µM; under `NCCNC(=O)c1nc(-c2cccc(C(=O)NCc3ccccc3)c2)cnc1N` [Example 616, 3-amino-N-(2-aminoethyl)-6-(3-{[(phenylmethyl)amino]carbonyl}phenyl)pyrazine-2-carboxamide], 0.05 to 1 µM.
Under `CC(C)(C)OC(=O)NC1CCN(C(=O)c2nc(-c3cccc(C(=O)NCc4ccccc4)c3)cnc2N)CC1` [Example 617, 1,1-dimethylethyl (1-{[3-amino-6-(3-{[(phenylmethyl)amino]carbonyl}phenyl)pyrazin-2-yl]carbonyl}piperidin-4-yl)carbamate] stands not below 10 µM.
With `Nc1ncc(-c2cccc(C(=O)NCc3ccccc3)c2)nc1C(=O)N1CCC(N)CC1` [Example 618, 3-{5-amino-6-[(4-aminopiperidin-1-yl)carbonyl]pyrazin-2-yl}-N-(phenylmethyl)benzamide], the IC50 is not below 10 µM.
